Measurements published in US20130029955A1, “INHIBITORS OF GALECTIN-3 AND METHODS OF USE THEREOF” (priority 2011, published 2013).

System: TGR(mREN2)27 rats
Experiment: Rat model of heart failure treated with a galectin-3 inhibitor
Assay type: in vivo
Description: In this study, N-acetyllactosamine (Gal3i) or an angiotensin-converting enzyme inhibitor (ACEi) was administered to TGR(mREN2)27 rats. Untreated TGR(mREN2)27 (REN2) and Sprague-Dawley (SD) rats were used as controls. TGR(mREN2)27 rats overexpress Ren-2, which leads to development of severe hypertension and ultimately heart failure. Fractional shortening, left ventricular end diastolic pressure (LVEDP), fibrosis, and survival were evaluated as a function of time.

For `CC(=O)N[C@H]1C(O)O[C@H](CO)[C@@H](O[C@@H]2O[C@H](CO)[C@H](O)[C@H](O)[C@H]2O)[C@@H]1O` (some centres unmarked) [Gal3i, N-acetyllactosamine], the fractional shortening (FIG. 3A, TGR(mREN2)27 rats, relative to placebo-treated REN2 control) was “prevented a significant loss”, the “rate of decrease in fractional shortening compared with SD control group” value (FIG. 3B, SD control group did not develop heart failure) was “comparable to that of the SD control group” and the “reduction in fractional shortening from beginning of the study to sacrifice” value (FIG. 3B, relative to placebo-treated REN2 control) was “significantly slowed the reduction in fractional shortening”. The “left ventricular end diastolic pressure (LVEDP)” value (FIG. 3C, relative to placebo-treated REN2 control) was “significantly improved the LVEDP”, the “Tau compared with SD control group” value (FIG. 3D) was “comparable to that of the SD control group” and the “left ventricle pressure decay (Tau)” value (FIG. 3D, relative to placebo-treated REN2 control) was “significantly improved the Tau”. The cardiac fibrosis (FIG. 4A/4B, cardiac tissue sections, compared to placebo-treated REN2 control group) was “significantly inhibited fibrosis” and the “survival (rats remaining, Kaplan-Meier)” value (FIG. 5, after 40 days, placebo-treated REN2 rats about 65%) was “approximately 80%”.
